≈ marks a conversion by molar mass, not a printed value. Read-outs that look alike come from different tables or passages of the source.
Tests used:
[1] = tested on: S30 extracts from S. aureus 133; assay: Gram-positive in vitro coupled transcription/translation (T/T) assay, S. aureus S30 extract; type: biochemical
Method: A procedure similar to the preparation of S30 extracts described by Murray et. al. (2) was used for S. aureus. Brain heart infusion (BHI) medium (6 l) was inoculated with 250 ml overnight culture of S. aureus 133 grown in BHI at 37° C. with agitation (170 rpm). Cells were cultured at 37° C. until an OD595nm of 2.5 was reached prior to centrifugation at 6000×g for 15 min at 4° C. Pellets were washed once with 500 ml cold S30-buffer A (10 mM Tris-acetate pH 8.0, 14 mM Mg-acetate, 1 mM DTT, 1 M KCl) and once with 250 ml of cold S30-buffer A containing 50 mM KCl. Pellets were frozen for 1 h at −20° C. or overnight at −70° C., thawed on ice and resuspended to a final volume of 99 ml buffer B (10 mM Tris-acetate pH 8.0, 20 mM Mg-acetate, 1 mM DTT, 50 mM KCl). A 1.5 ml aliquote of lysostaphin (0.8 mg/ml) in buffer B was added to each of three centrifuge tubes and 33 ml of the cell suspension were added. Samples were incubated at 37° C. for 1 h with gentle agitation prior to the addition of 150 μl 0.5 M DTT. Lysed cells were centrifuged for 30 min at 30,000×g at 4° C. and the resulting pellet was washed once with 33 ml S30-buffer B. The pooled supernatants were recentrifuged at 30,000×g for 30 min at 4° C. 100 ml of the supernatant were incubated with 25 ml preincubation buffer (670 mM Tris-acetate pH 8.0, 20 mM Mg-acetate, 7 mM Na3-PEP, 7 mM DTT, 5.5 mM ATP, 70 μM amino acids complete [Promega], 75 μg pyruvate kinase [Sigma]/ml) for 30 min at 37° C. to translate mRNAs. The preincubated supernatants were dialysed at 4° C. against 2 l of 10 mM Tris-acetate pH 8.0, 14 mM Mg-acetate, 1 mM DTT, 60 mM KCl with one buffer change using a Spectra-Por dialysis bag with a molecular weight cutoff of 3,500. The dialysate was gently concentrated by covering the dialysis bag with polyethylene glycol 8,000 powder (Sigma) at 4° C. to a protein concentration of ˜10 mg/ml. The resulting S30 extracts were flash frozen and stored in aliquots at −70° C.
(§1) The final assay volume was 59 μl. Inhibitor (3 μl dissolved in 10% DMSO), plasmid DNA (10 μl of optimal concentration in water pH 8.0) and 46 μl S30 extract [optimal concentration in 23 μl premixed with 23 μl incubation buffer (0.5 M potassium acetate, 87.5 mM Tris/acetate pH 8.0, 67.5 mM ammonium acetate, 50 μg/ml folinic acid, 5 mM DTT, 87.5 mg/ml polyethylene glycol 8000, 5 mM ATP; 1.25 mM of each CTP, GTP and UTP; 0.02 mM amino acids, 50 mM phosphoenolpyruvate trisodium salt, 2.5 mM cyclic AMP, 250 μg of each E. coli tRNA/ml) were added and incubated at 30° C. for 1 h. When using pT7-FF as a template 0.05 μl or 0.1 μl (50 U/μl) T7-RNA-Polymerase (Gibco BRL) were added to the S30 extracts used in the assay. Newly synthesized luciferase was detected by measuring bioluminescence for 60 s in a luininometer after the addition of 50 μl substrate buffer containing luciferine (20 mM Tricine/Cl pH 7.8, 2.67 mM MgSO4, 0.1 mM EDTA, 33.3 mM DTT, 0.27 mM Coenzyme A, 0.47 mM luciferine, 0.53 mM ATP).
MIC (minimal inhibitory concentration) values were determined as described in Example 4. Numbers in square brackets relate to the unit in square brackets as given in the column heading.

[2] = tested on: S30 extracts from S. pneumoniae 1707/4; assay: Gram-positive in vitro coupled transcription/translation (T/T) assay, S. pneumoniae S30 extract; type: biochemical
Method: S. pneumoniae 1707/4 was grown overnight at 37° C. on agar plates containing 5% sheep blood under microaerophilic conditions. Cells were collected and inoculated into 4.8 l of BHI medium containing 5% bovine serum prior to cultivation at 37° C. under microaerophilic conditions for 5 h. S30 extracts were prepared as described for S. aureus 133 with some modifications. Cells were harvested and washed by centrifugation at 20,000×g for 15 min. The resulting cell pellet was resuspended in 20 ml buffer B, 3 mg lysozyme were added, incubated for 40 min at 37° C. prior to the addition of 75 μl 0.5 M DTT. The S30 sediment was washed with 8 ml buffer B and 7 ml preincubation buffer were added to the pooled supernatants.
as §1
(§2) The shape of the inhibition profiles is more or less similar for these compounds, in case of Streptomycin the lower IC50 value for S. aureus 133 compared to E. faecalis 27263 can be seen. templates pXyl-FF and pT7-FF with S30 extracts of the indicated bacterial strains. […] MIC (minimal inhibitory concentration) values were determined as described in Example 4. Numbers in square brackets relate to the unit in square brackets as given in the column heading.

[3] = tested on: S30 extracts from E. faecalis 27263; assay: Gram-positive in vitro coupled transcription/translation (T/T) assay, E. faecalis S30 extract; type: biochemical
Method: E. faecalis 26273 was grown overnight in 250 ml BHI medium containing 2% bovine serum at 37° C. under microaerophilic conditions. The overnight culture was used to inoculate 4.8 1 BHI medium, cells were incubated at 37° C. under microaerophilic conditions with agitation (170 rpm) until an OD600 nm of ˜1.6 was reached. Preparation of S30 extracts was done as described for S. aureus with the following exceptions. Cells were harvested and washed at 7000×g at 4° C. for 12 min and resuspended in 100 ml S30-buffer B. For cell lysis 15 mg lysozyme resuspended in 1 ml S30-buffer B were added and incubated for 2 h at 37° C. with agitation. To complete cell lysis extracts were passed once through a French Press at 600 psi.
as §1, §2

E. faecalis 27263 = assay: Minimum inhibitory concentration, micro broth dilution; type: cell-based
Method: (§3) MIC determinations were performed using the micro broth dilution method with an inoculum of 5×10^5 cfu/ml in BHI medium. Growth was read after 24 h of incubation at 37° C. Test compounds were dissolved in dimethyl sulfoxide and diluted to a concentration not higher than 2.5% dimethyl sulfoxide. For S. pneumoniae 1707/4 and E. faecalis 27263 16% bovine serum were added and incubated under microaerophilic conditions.

S. aureus 133 = assay: as above; type: cell-based
Method: as §3

S. pneumoniae 1707/4 = assay: as above; type: cell-based
Method: as §3

[4] = tested on: S30 extracts derived from all three Gram-positives; assay: In vitro coupled T/T assay, for all three Gram-positive S30 extracts; type: biochemical, S. aureus, S. pneumoniae, E. faecalis; conditions: at high concentrations
Method: To validate the in vitro coupled T/T assay for screening of potential inhibitors of transcription and translation several antibiotics of known mode of action were tested.

[5] = template pT7-FF with T7 RNA polymerase, read-out: IC50
[6] = template pT7-FF, value in square brackets
[7] = template pXyl-FF, 50% inhibition of in vitro translation of luciferase, read-out: IC50
[8] = template pXyl-FF, value in square brackets
[9] = template pXyl-FF, read-out: IC50
[10] = BHI medium, 16% bovine serum, microaerophilic, 24 h, 37° C.
[11] = Enterococcus faecalis, 27263, BHI medium, 16% bovine serum, microaerophilic, 24 h, 37° C., read-out: MIC
[12] = Staphylococcus aureus, 133, BHI medium, 24 h, 37° C., read-out: MIC
[13] = Streptococcus pneumoniae, 1707/4, BHI medium, 16% bovine serum, microaerophilic, 24 h, 37° C., read-out: MIC
[14] = Enterococcus faecalis, 27263, 24 h
[15] = Streptococcus pneumoniae, 1707/4, 24 h

| Compound | IC50 [1, 5] [µM] | IC50 [1, 6] [µg/mL] | IC50 [1, 7] [µM] | IC50 [1, 8] [µg/mL] | IC50 [2, 5] [µM] | IC50 [2, 6] [µg/mL] | IC50 [3, 5] [µM] | IC50 [3, 6] [µg/mL] | IC50 [3, 9] [µM] | IC50 [3, 8] [µg/mL] | MIC (E. faecalis 27263; [10]) [µg/mL] | MIC (S. aureus 133; BHI medium, 24 h, 37° C.) [µg/mL] | MIC (S. pneumoniae 1707/4; [10]) [µg/mL] | MIC (E. faecalis 27263; [11]) [µg/mL] | MIC (S. aureus 133; [12]) [µg/mL] | MIC (S. pneumoniae 1707/4; [13]) [µg/mL] | inhibition in the in vitro coupled T/T assay [4] | MIC (E. faecalis 27263; [14]) [µg/mL] | MIC (S. aureus 133; Staphylococcus aureus, 133, 24 h) [µg/mL] | MIC (S. pneumoniae 1707/4; [15]) [µg/mL] |
| --- | --- | --- | --- | --- | --- | --- | --- | --- | --- | --- | --- | --- | --- | --- | --- | --- | --- | --- | --- | --- |
| CN(C)[C@@H]1C(=O)C(C(N)=O)=C(O)[C@@]2(O)C(=O)C3=C(O)c4c(O)cccc4[C@@](C)(O)[C@H]3C[C@@H]12 [Tetracyclin] | 0.6 | 0.25 | 0.9 | 0.4 | 0.45 | 0.2 | 2.3 | 1.0 | 1.8 | 0.8 | >100 | 0.05 (≈ 0.113 µM) | 0.2 (≈ 0.45 µM) |  |  |  |  |  |  |  |
| CC1(C)S[C@@H]2[C@H](NC(=O)[C@H](N)c3ccccc3)C(=O)N2[C@H]1C(=O)O [Ampicillin] | > 142 | > 50 | > 285 | > 100 | > 285 | > 100 | > 142 | > 50 | > 142 | > 50 |  |  |  | 3.1 (≈ 8.87 µM) | 0.4 (≈ 1.14 µM) | 0.12 (≈ 0.343 µM) | no or only weak inhibition |  |  |  |
| CO[C@H]1/C=C/O[C@@]2(C)Oc3c(C)c(O)c4c(O)c(c(/C=N/N5CCN(C)CC5)c(O)c4c3C2=O)NC(=O)/C(C)=C\C=C\[C@H](C)[C@H](O)[C@@H](C)[C@@H](O)[C@@H](C)[C@H](OC(C)=O)[C@@H]1C [Rifampicin] |  |  |  |  |  |  |  |  |  |  |  |  |  | 3.1 (≈ 3.77 µM) | < 0.05 | < 0.05 |  |  |  |  |
| [H]/N=C(/N)N[C@H]1[C@H](O)[C@@H](O)[C@H](O[C@@H]2O[C@@H](C)[C@](O)(C=O)[C@H]2O[C@@H]2O[C@@H](CO)[C@H](O)[C@@H](O)[C@@H]2NC)[C@@H](N/C(N)=N\[H])[C@@H]1O [Streptomycin] | 0.02 | 0.03 | 0.05 | 0.07 | 0.01 | 0.02 | 0.41 | 0.6 | 0.48 | 0.7 |  |  |  | > 100 | 6.25 (≈ 10.7 µM) | > 100 |  |  |  |  |
| CN[C@H](CC(C)C)C(=O)N[C@H]1C(=O)N[C@@H](CC(N)=O)C(=O)N[C@H]2C(=O)N[C@H]3C(=O)N[C@H](C(=O)N[C@H](C(=O)O)c4cc(O)cc(O)c4-c4cc3ccc4O)[C@H](O)c3ccc(c(Cl)c3)Oc3cc2cc(c3O[C@@H]2O[C@H](CO)[C@@H](O)[C@H](O)[C@H]2O[C@H]2C[C@](C)(N)[C@H](O)[C@H](C)O2)Oc2ccc(cc2Cl)[C@H]1O [Vancomycin] | > 34 | > 50 | > 67 | > 100 | > 34 | > 50 | > 34 | > 50 | > 34 | > 50 |  |  |  |  |  |  | no or only weak inhibition | 2 (≈ 1.38 µM) | 0.25 (≈ 0.173 µM) | 0.25 (≈ 0.173 µM) |
| CC(=O)NC[C@H]1CN(c2ccc(N3CCOCC3)c(F)c2)C(=O)O1 [Linezolid] | 4.1 | 1.2 | 4.1 | 1.2 | 5.8 | 1.7 | 3.4 | 1.0 | 3.1 | 0.9 |  |  |  | 2 (≈ 5.93 µM) | 2 (≈ 5.93 µM) | 1 (≈ 2.96 µM) |  |  |  |  |
| O=C(N[C@H](CO)[C@H](O)c1ccc([N+](=O)[O-])cc1)C(Cl)Cl [Chloramphenicol] | 7.4 | 2.4 | 9.3 | 3.0 | 11.8 | 3.8 | 16.7 | 5.4 | 14.9 | 4.8 |  |  |  | > 16 | 4 (≈ 12.4 µM) | 4 (≈ 12.4 µM) |  |  |  |  |
| COc1c(N2C[C@@H]3CCCN[C@@H]3C2)c(F)cc2c(=O)c(C(=O)O)cn(C3CC3)c12 [Moxifloxacin] |  |  |  |  |  |  |  |  |  |  |  |  |  |  | 0.06 (≈ 0.149 µM) |  |  | 0.5 (≈ 1.25 µM) |  | 0.25 (≈ 0.623 µM) |
| CC[C@H]1OC(=O)[C@H](C)[C@@H](O[C@H]2C[C@@](C)(OC)[C@@H](O)[C@H](C)O2)[C@H](C)[C@@H](O[C@@H]2O[C@H](C)C[C@H](N(C)C)[C@H]2O)[C@](C)(O)C[C@@H](C)C(=O)[C@H](C)[C@@H](O)[C@]1(C)O [Erythromycin] | 0.2 | 0.15 | 0.2 | 0.15 | 0.05 | 0.04 | 0.4 | 0.3 | 0.2 | 0.15 |  |  |  | > 100 | 0.1 (≈ 0.136 µM) | 0.1 (≈ 0.136 µM) |  |  |  |  |

— patent US20080050759A1, “Screening Assay for Anti-Bacterial Compounds” (Bayer Healthcare AG, priority 2003, published 2008)
